The results in this text go back to patent US20200062712A1, “ALDEHYDE TRAPPING COMPOUNDS AND USES THEREOF” (Aldeyra Therapeutics, Inc., priority 2016, published 2020).

Assay [1] in a line: Rate of formation of aldehyde (4-HNE) adducts, HPLC product peak over time. Particulars: for Formation of Product 7 Hours (ranking, most effective to least) / Formation of Product 23 Hours (ranking, most effective to least): rank 1 = most effective; for Gradient (rate of product peak increase, formation of aldehyde adduct): best fit line. The procedure:
It is not possible to conclude if this is the result of poor dissociation (from cyclodextrin) or poor interaction with the aldehyde. Best fit lines over this period give excellent fit to data. […] It can be used to relatively rank each of the samples examined, including NS2. The data were first evaluated over a 7 h time window.
Similar results were obtained when the window was extended to 23 h. However, two of the compounds yielded lower R. Sq. values in this context.
During this time period 3 of the 5 samples reached equilibrium.

A short description of assay [2]: Formation of 4-HNE adduct with exemplary compounds (AUC of adduct over time). Particulars: one equivalent of 4-HNE and 2 equivalents of compound; performed twice. The procedure:
The ability of exemplary compounds to react with 4-HNE and form the corresponding adduct was measured. All compounds were analyzed by HPLC at 254 nm for their purity prior to the reaction.
Area under the curve (AUC) of each adduct was plotted over time.

In assay [3] the test system is brain slices of B6.129-Aldh5a1tm1Kmg/J (SSADH null) mice. Nature of the assay: Ex vivo SSADH study: GABA and GHB content of brain slices and incubation media by HPLC. The class given is cell-based. The following applies: 100 μg/mL, 24 hours incubation; SSADH null mouse brain slices. How it is done: Three and one half (3.5) days after birth, B6.129-Aldh5a1^tm1Kmg/J (SSADH null) mice and wild type (wt) littermates animals were sacrificed and brains were harvested. […] Brain slices and the incubation media (sup) were then analyzed by HPLC for GHB and GABA content.

Assay [4] in a line: Consumption of 4-HNE over time, HPLC at 254 nm. The following applies: for Consumption of 4-HNE 7 Hours (ranking, most effective to least): rank 1 = most effective; for Consumption of 4-HNE 23 Hours (ranking, most effective to least): small differences between samples ranking 1-4, essentially identical; for Decrease in HNE versus corresponding increase in adduct: one-week time period. An excerpt: Five of 6 samples show consumption of 4-HNE. One sample (2-(3-aminoquinolin-2-yl)propan-2-ol) overlaps the 4-HNE HPLC peak using the current method. Best fit lines over this period give poorer fit to data than product formation data. Rate of 4-HNE consumption can be used as an approximation of binding kinetics.
The samples appeared to reach equilibrium, with the ongoing decrease in HNE amounts possibly due to another degradative pathway.

The test system of a further assay is abcr−/− knockout mice. It is filed as in vivo. The following applies: 10 mg/kg IP daily for 56 days, p=0.011. How it is done: This experiment is designed to establish proof of concept that chronic intraperitoneal administration of a RAL-trap compound lowers the accumulation rate of A2E in B6:129SvEv-Abcr (abcr−/−) mice.
The study was performed with B6:129SvEv-Abcr (abcr−/−) mice. Treatment groups included 24 mice (males and females) per treatment condition. Each animal was treated with one of the following conditions: • Control: a commercially available compound known clinically to modulate retinal function in humans and known experimentally to form a Schiff base adduct with free RAL, both in vitro and in vivo in animal models. • Vehicle • Compound • Untreated
A third group of animals served as untreated controls and were sacrificed on Day 1 of the study.
The experiments described herein used a variety of biology and biochemistry services. If necessary, non-toxic doses of compounds of the invention, formulated for treatment with an eye drop or other formations, may be established, e.g., in the rabbit with an ocular irritation protocol. […] Light responses were characterized by ERG (Weng, et al., Cell 98:13, 1999). Intracellular A2E concentration of retinal RPE cell extracts were measured using an analytical method such as those described by Karan et al., 2005; Radu et al., 2003; and Parish et al., PNAS 95:14609, 1998.

[5] abbreviates: 7 h time window, samples in cyclodextrin.

Take `CC(C)(O)c1nc2ccccc2cc1N` [Compound I-1, 2-(3-aminoquinolin-2-yl)propan-2-ol]: in assay [1], the “Formation of Product 7 Hours (ranking, most effective to least)” value (“Formation of Product 7 Hours” for short) was 1 and the “Formation of Product 23 Hours (ranking, most effective to least)” value (shortened to “Formation of Product 23 Hours”) was determined as 1. Besides, the “Gradient (rate of product peak increase, formation of aldehyde adduct)” value in assay [1] (setting [5]) was “(Gradient 3.68, R”. The “Gradient (rate of product peak increase, formation of aldehyde adduct)” value in assay [1] (window extended to 23 h) was “(Gradient 1.99, R”. Moreover, the “Formation of the corresponding adduct with 4-HNE” value in assay [2] was “formed the corresponding adduct with 4-HNE”. For the same compound, in assay [3], the “GABA content compared to the controls” value is listed as “decreased” and the “GHB content compared to the controls” value is “decreased”.
Take `CC(C)(O)c1nc2cc(Cl)ccc2cc1N` [Compound I-3, 2-(3-amino-7-chloroquinolin-2-yl)propan-2-ol]: in assay [1], the “Formation of Product 7 Hours” value was 3 and the “Formation of Product 23 Hours” value amounted to 3. In assay [1] (setting [5]), the “Gradient (rate of product peak increase, formation of aldehyde adduct)” value is “(Gradient 2.02, R”. Further, the “Gradient (rate of product peak increase, formation of aldehyde adduct)” value in assay [1] (window extended to 23 h) is given as “(Gradient 1.21, R”. In assay [4], the “Consumption of 4-HNE 7 Hours (ranking, most effective to least)” value (“Consumption of 4-HNE 7 Hours” for short) is 2; the “Consumption of 4-HNE 23 Hours (ranking, most effective to least)” value (shortened to “Consumption of 4-HNE 23 Hours”) stood at 1; the “Decrease in HNE versus corresponding increase in adduct” value was “decrease in HNE is greater than the corresponding increase in adduct”. Also, the “Gradient (rate of 4-HNE consumption)” value in assay [4] (23 h) is “(Gradient −0.05, R”. Besides, the “Gradient (rate of 4-HNE consumption)” value in assay [4] (first 7 h, analysis at 254 nm) is “(Gradient −0.06, R”.
Consider `CC(C)(O)c1nc2ccc(Br)cc2cc1N` [Compound I-5, 2-(3-amino-6-bromoquinolin-2-yl)propan-2-ol], for which, in assay [1], the “Formation of Product 7 Hours” value came to 4 and the “Formation of Product 23 Hours” value turned out to be 4. Further, the “Gradient (rate of product peak increase, formation of aldehyde adduct)” value in assay [1] (setting [5]) is recorded as “(Gradient 1.63, R”. Also, the “Gradient (rate of product peak increase, formation of aldehyde adduct)” value in assay [1] (window extended to 23 h) is “(Gradient 1.16, R”. Further, in assay [4], the “Consumption of 4-HNE 7 Hours” value stood at 4 and the “Consumption of 4-HNE 23 Hours” value was found to be 4. Moreover, the “Gradient (rate of 4-HNE consumption)” value in assay [4] (23 h) is given as “(Gradient −0.04, R”. The “Gradient (rate of 4-HNE consumption)” value in assay [4] (first 7 h, analysis at 254 nm) is reported as “(Gradient −0.04, R”.
In the case of `CC(C)(O)c1nc2c(Cl)cccc2cc1N` [Compound I-4, 2-(3-amino-8-chloroquinolin-2-yl)propan-2-ol], in assay [1], the “Formation of Product 7 Hours” value is listed as 5 and the “Formation of Product 23 Hours” value is on record as 5. In assay [1] (setting [5]), the “Gradient (rate of product peak increase, formation of aldehyde adduct)” value is “(Gradient 1.18, R”. Besides, in assay [1] (window extended to 23 h), the “Gradient (rate of product peak increase, formation of aldehyde adduct)” value is listed as “(Gradient 0.81, R”. In assay [4], the “Consumption of 4-HNE 7 Hours” value is given as 5; the “Consumption of 4-HNE 23 Hours” value was determined as 5; the “Decrease in HNE versus corresponding increase in adduct” value was “decrease in HNE is greater than the corresponding increase in adduct”. Also, the “Gradient (rate of 4-HNE consumption)” value in assay [4] (23 h) is on record as “(Gradient −0.02, R”. The “Gradient (rate of 4-HNE consumption)” value in assay [4] (first 7 h, analysis at 254 nm) is “(Gradient −0.01, R”.
As for `CC(C)(O)c1nc2cccc(Cl)c2cc1N` [Compound I-2, 2-(3-amino-5-chloroquinolin-2yl)propan-2-ol], in assay [1], the “Formation of Product 7 Hours” value is listed as 6 and the “Formation of Product 23 Hours” value is listed as 6. Also, the “Gradient (rate of product peak increase, formation of aldehyde adduct)” value in assay [1] (setting [5]) is “(Gradient 0.86, R”. Besides, the “Gradient (rate of product peak increase, formation of aldehyde adduct)” value in assay [1] (window extended to 23 h) was “(Gradient 0.44, R”. In assay [4], the “Consumption of 4-HNE 7 Hours” value is 3 and the “Consumption of 4-HNE 23 Hours” value worked out at 2. The “Gradient (rate of 4-HNE consumption)” value in assay [4] (23 h) is “(Gradient −0.04, R”. Further, the “Gradient (rate of 4-HNE consumption)” value in assay [4] (first 7 h, analysis at 254 nm) was “(Gradient −0.05, R”.
For the compound `CC(C)(O)c1nc2ccc(Cl)cc2cc1N` [NS2, 2-(3-amino-6-chloroquinolin-2-yl)propan-2-ol, reference compound], in assay [1], the “Formation of Product 7 Hours” value stood at 2 and the “Formation of Product 23 Hours” value is 2. Moreover, the “Gradient (rate of product peak increase, formation of aldehyde adduct)” value in assay [1] (setting [5]) is given as “(Gradient 2.22, R”. The “Gradient (rate of product peak increase, formation of aldehyde adduct)” value in assay [1] (window extended to 23 h) is listed as “(Gradient 1.33, R”. In assay [4], the “Consumption of 4-HNE 7 Hours” value stood at 1 and the “Consumption of 4-HNE 23 Hours” value is 3. The “Gradient (rate of 4-HNE consumption)” value in assay [4] (23 h) is recorded as “(Gradient −0.04, R”. The “Gradient (rate of 4-HNE consumption)” value in assay [4] (first 7 h, analysis at 254 nm) is recorded as “(Gradient −0.15, R”. Also, in the assay on abcr−/− knockout mice, the “Reduction of formation of A2E compared with vehicle-treated controls” value came to 71%. Moreover, the “Formation of the corresponding adduct with 4-HNE” value in assay [2] was “formed the corresponding adduct with 4-HNE”. Also, in assay [3], the “GABA content compared to the controls” value was “decreased” and the “GHB content compared to the controls” value was “decreased”.
